From patent US20230080054A1 (ILDONG PHARMACEUTICAL CO., LTD., priority 2021, published 2023)

Target: T1, human ANO6 (Homo sapiens, UniProt Q4KMQ2)
T1 construct: expressed in transfected cells
T1 sequence (Q4KMQ2 1-931 isoform Q4KMQ2-2): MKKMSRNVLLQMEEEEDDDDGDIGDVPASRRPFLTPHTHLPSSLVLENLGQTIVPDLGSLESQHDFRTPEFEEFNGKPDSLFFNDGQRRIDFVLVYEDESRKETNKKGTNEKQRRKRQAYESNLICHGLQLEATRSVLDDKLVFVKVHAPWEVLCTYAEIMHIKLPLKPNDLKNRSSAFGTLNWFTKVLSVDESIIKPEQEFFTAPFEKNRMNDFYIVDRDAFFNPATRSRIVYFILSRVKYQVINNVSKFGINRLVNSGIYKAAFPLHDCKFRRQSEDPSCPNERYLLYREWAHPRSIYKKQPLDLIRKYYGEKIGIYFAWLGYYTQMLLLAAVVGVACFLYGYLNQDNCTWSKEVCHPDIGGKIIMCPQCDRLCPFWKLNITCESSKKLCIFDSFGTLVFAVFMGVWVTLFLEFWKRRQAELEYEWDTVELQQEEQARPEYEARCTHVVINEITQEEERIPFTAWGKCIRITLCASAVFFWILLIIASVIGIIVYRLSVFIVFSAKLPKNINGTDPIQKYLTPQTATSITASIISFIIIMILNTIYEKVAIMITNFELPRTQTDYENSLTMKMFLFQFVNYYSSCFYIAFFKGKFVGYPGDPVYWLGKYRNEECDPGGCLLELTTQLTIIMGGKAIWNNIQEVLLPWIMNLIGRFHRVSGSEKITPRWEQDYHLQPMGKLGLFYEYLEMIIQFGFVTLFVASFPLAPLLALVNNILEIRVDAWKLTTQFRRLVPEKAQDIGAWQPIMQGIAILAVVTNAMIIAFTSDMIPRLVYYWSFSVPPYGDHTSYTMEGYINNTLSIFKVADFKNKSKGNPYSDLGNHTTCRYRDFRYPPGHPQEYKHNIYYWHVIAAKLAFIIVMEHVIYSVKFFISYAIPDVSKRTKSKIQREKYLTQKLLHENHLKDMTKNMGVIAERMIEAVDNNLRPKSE
Assay: YFP quenching assay (ANO6 ion channel activity)
Assay type: cell-based
Conditions: test compound 1 μM, 10 μM ionomycin, read-out: Inhibition Level 1 μM
How it was run: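 FRT cells stably expressing human ANO6 and YFP-H148Q/I152L/F46L, preincubated 10 min at 40° C with compounds (1% DMSO) in PBS. Quench read every 0.4 s after injecting 140 mM SCN- with 10 μM ionomycin; % inhibition from the 3.6–7.6 s fluorescence difference, normalised to no-ionomycin (100%) and ionomycin-only (0%) wells, duplicate or triplicate.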

SMILES	inhibition at 1 µM [%]
O=C(Nc1ccc(Cl)c(Cl)c1)c1cccc(Nc2ncc(-c3cccc(F)c3)cn2)c1 [Compound 118, N-(3,4-dichlorophenyl)-3-{[5-(3-fluorophenyl)pyrimidin-2-yl]amino}benzamide]	≥ 60
O=C(Nc1cccc(F)c1)c1cccc(Nc2ccc(-c3cccc(F)c3)cn2)c1 [Compound 122, N-(3-fluorophenyl)-3-{[5-(3-fluorophenyl)pyridin-2-yl]amino}benzamide]	≥ 60
O=C(NCCc1cccc(C(F)(F)F)c1)c1cccc(Nc2ncc(-c3cccc(F)c3)cn2)c1 [Compound 79, 3-{[5-(3-fluorophenyl)pyrimidin-2-yl]amino}-N-{2-[3-(trifluoromethyl)phenyl]ethyl}benzamide]	≥ 60
O=C(N[C@@H]1C[C@H]1c1ccccc1)c1cccc(Nc2ccc(-c3cccc(F)c3)cn2)c1 [Compound 123, 3-{[5-(3-fluorophenyl)pyridin-2-yl]amino}-N-[(1R,2S)-2-phenylcyclopropyl]benzamide]	≥ 60
O=C(N[C@@H]1C[C@H]1c1ccccc1)c1cccc(Nc2ncc(-c3cccc(F)c3)cn2)c1 [Compound 119, 3-{[5-(3-fluorophenyl)pyrimidin-2-yl]amino}-N-[(1R,2S)-2-phenylcyclopropyl]benzamide]	≥ 60
O=C(N[C@@H]1C[C@H]1c1ccccc1)c1cccc(Nc2ccc(-c3ccccc3)nn2)c1 [Compound 68, N-[(1R,2S)-2-phenylcyclopropyl]-3-[(6-phenylpyridazin-3-yl)amino]benzamide]	≥ 60
O=C(NCCC1CCCCC1)c1cccc(Nc2ncc(-c3cccc(F)c3)cn2)c1 [Compound 80, N-(2-cyclohexylethyl)-3-{[5-(3-fluorophenyl)pyrimidin-2-yl]amino}benzamide]	≥ 60
